# Reference: US20230183193A1, “4-DIFLUOROMETHYL BENZOYL AMIDES WITH HERBICIDAL ACTION” (BAYER CROPSCIENCE AKTIENGESELLSCHAFT, priority 2017, published 2023)
# Key:
# Format in all cases: in vivo
# Alopecurus myosuroides [1] = assay: Pre-emergence herbicidal action, ALOMY; conditions: dosage 320 g/ha, scored visually after 3 weeks vs untreated controls
# In short: (§1)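 Weed seeds were laid out in sandy loam and covered with soil, then the soil surface was treated with an aqueous suspension or emulsion of the formulated compound containing 0.2% wetting agent. Pots stayed in the greenhouse for 3 weeks before damage was rated visually against untreated plants.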
# Abutilon theophrasti [2] = assay: Post-emergence herbicidal action, ABUTH; conditions: 80 g/ha, Table D
# In short: (§2)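 Herbicidal effect is rated visually as percent versus untreated plants (100% = dead, 0% = like control) about 3 weeks after spraying. Plants were sown in sandy loam in the greenhouse and sprayed on green parts at the one-leaf stage, 2 to 3 weeks post-sowing.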
# Viola tricolor [3] = assay: Pre-emergence herbicidal action, VIOTR; conditions: dosage 320 g/ha, scored visually after 3 weeks vs untreated controls
# In short: as §1
# Setaria viridis [4] = assay: Post-emergence herbicidal action, SETVI; conditions: 80 g/ha, Table C
# In short: as §2
# Amaranthus retroflexus [5] = assay: Pre-emergence herbicidal action, AMARE; conditions: dosage 320 g/ha, scored visually after 3 weeks vs untreated controls
# In short: as §1
# ECHCG = assay: Post-emergence herbicidal action, ECHCG; conditions: 80 g/ha, Table C
# In short: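 Weed and crop plants grown in sandy loam in the greenhouse, treated at the one-leaf stage 2–3 weeks after sowing. Damage scored visually after about 3 weeks vs untreated controls (0% = control, 100% = dead).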
# Setaria viridis [6] = assay: Pre-emergence herbicidal action, SETVI; conditions: dosage 320 g/ha, scored visually after 3 weeks vs untreated controls
# In short: as §1
# Cyperus serotinus = assay: Pre-emergence herbicidal action, CYPES; conditions: dosage 320 g/ha, scored visually after 3 weeks vs untreated controls
# In short: as §1
# Matricaria inodora = assay: Pre-emergence herbicidal action, MATIN; conditions: dosage 320 g/ha, scored visually after 3 weeks vs untreated controls
# In short: as §1
# Amaranthus retroflexus [7] = assay: Post-emergence herbicidal action, AMARE; conditions: 80 g/ha, Table D
# In short: as §2
# Stellaria media [8] = assay: Pre-emergence herbicidal action, STEME; conditions: dosage 320 g/ha, scored visually after 3 weeks vs untreated controls
# In short: as §1
# Abutilon theophrasti [9] = assay: Pre-emergence herbicidal action, ABUTH; conditions: dosage 320 g/ha, scored visually after 3 weeks vs untreated controls
# In short: as §1
# Viola tricolor [10] = assay: Post-emergence herbicidal action, VIOTR; conditions: 80 g/ha, Table D
# In short: as §2
# Stellaria media [11] = assay: Post-emergence herbicidal action, STEME; conditions: 80 g/ha, Table D
# In short: as §2
# Avena fatua [12] = assay: Pre-emergence herbicidal action, AVEFA; conditions: dosage 320 g/ha, scored visually after 3 weeks vs untreated controls
# In short: as §1
# Pharbitis purpureum = assay: Post-emergence herbicidal action, PHBPU; conditions: 80 g/ha, Table D
# In short: as §2
# Avena fatua [13] = assay: Post-emergence herbicidal action, AVEFA; conditions: 80 g/ha, Table C
# In short: as §2
# Alopecurus myosuroides [14] = assay: Post-emergence herbicidal action, ALOMY; conditions: 80 g/ha, Table C
# In short: as §2
smiles,measurement,setting,value
CCSc1c(C(F)F)ccc(C(=O)Nc2nnnn2C)c1Cl [Example 1-52],herbicidal activity ALOMY,Alopecurus myosuroides [1],100%
same,herbicidal activity ABUTH,Abutilon theophrasti [2],100%
same,herbicidal activity VIOTR,Viola tricolor [3],100%
same,herbicidal activity SETVI,Setaria viridis [4],90%
same,herbicidal activity AMARE,Amaranthus retroflexus [5],100%
same,Herbicidal activity ECHCG,ECHCG,90%
same,herbicidal activity SETVI,Setaria viridis [6],100%
same,herbicidal activity CYPES,Cyperus serotinus,90%
same,herbicidal activity MATIN,Matricaria inodora,100%
same,herbicidal activity AMARE,Amaranthus retroflexus [7],100%
same,Herbicidal activity STEME,Stellaria media [8],100%
same,herbicidal activity ABUTH,Abutilon theophrasti [9],100%
same,herbicidal activity VIOTR,Viola tricolor [10],100%
same,Herbicidal activity STEME,Stellaria media [11],100%
same,herbicidal activity AVEFA,Avena fatua [12],100%
same,Herbicidal activity PHBPU,Pharbitis purpureum,100%
same,herbicidal activity AVEFA,Avena fatua [13],100%
same,herbicidal activity ALOMY,Alopecurus myosuroides [14],100%
CCc1c(C(=O)Nc2nnnn2C)ccc(C(F)F)c1S(C)(=O)=O [Example 1-15],herbicidal activity ALOMY,Alopecurus myosuroides [1],100%
same,herbicidal activity ABUTH,Abutilon theophrasti [2],90%
same,herbicidal activity VIOTR,Viola tricolor [3],100%
same,herbicidal activity SETVI,Setaria viridis [4],80%
same,herbicidal activity AMARE,Amaranthus retroflexus [5],100%
same,Herbicidal activity ECHCG,ECHCG,90%
same,herbicidal activity SETVI,Setaria viridis [6],100%
same,herbicidal activity CYPES,Cyperus serotinus,100%
same,herbicidal activity MATIN,Matricaria inodora,100%
same,herbicidal activity AMARE,Amaranthus retroflexus [7],100%
same,Herbicidal activity STEME,Stellaria media [8],100%
same,herbicidal activity ABUTH,Abutilon theophrasti [9],100%
same,herbicidal activity VIOTR,Viola tricolor [10],100%
same,Herbicidal activity STEME,Stellaria media [11],100%
same,herbicidal activity AVEFA,Avena fatua [12],100%
same,Herbicidal activity PHBPU,Pharbitis purpureum,90%
same,herbicidal activity AVEFA,Avena fatua [13],100%
same,herbicidal activity ALOMY,Alopecurus myosuroides [14],90%
CCSc1c(C(F)F)ccc(C(=O)Nc2nnnn2C)c1C1CC1 [Example 1-28],herbicidal activity ALOMY,Alopecurus myosuroides [1],100%
same,herbicidal activity ABUTH,Abutilon theophrasti [2],100%
same,herbicidal activity VIOTR,Viola tricolor [3],100%
same,herbicidal activity SETVI,Setaria viridis [4],100%
same,herbicidal activity AMARE,Amaranthus retroflexus [5],100%
same,Herbicidal activity ECHCG,ECHCG,100%
same,herbicidal activity SETVI,Setaria viridis [6],100%
same,herbicidal activity CYPES,Cyperus serotinus,100%
same,herbicidal activity MATIN,Matricaria inodora,100%
same,herbicidal activity AMARE,Amaranthus retroflexus [7],100%
same,Herbicidal activity STEME,Stellaria media [8],100%
same,herbicidal activity ABUTH,Abutilon theophrasti [9],100%
same,herbicidal activity VIOTR,Viola tricolor [10],100%
same,Herbicidal activity STEME,Stellaria media [11],100%
same,herbicidal activity AVEFA,Avena fatua [12],100%
same,Herbicidal activity PHBPU,Pharbitis purpureum,100%
same,herbicidal activity AVEFA,Avena fatua [13],100%
same,herbicidal activity ALOMY,Alopecurus myosuroides [14],90%
CCn1nnnc1NC(=O)c1ccc(C(F)F)c(SC)c1Br [Example 2-61],herbicidal activity ALOMY,Alopecurus myosuroides [1],100%
same,herbicidal activity ABUTH,Abutilon theophrasti [2],100%
same,herbicidal activity VIOTR,Viola tricolor [3],100%
same,herbicidal activity SETVI,Setaria viridis [4],90%
same,herbicidal activity AMARE,Amaranthus retroflexus [5],100%
same,Herbicidal activity ECHCG,ECHCG,90%
same,herbicidal activity SETVI,Setaria viridis [6],100%
same,herbicidal activity CYPES,Cyperus serotinus,100%
same,herbicidal activity MATIN,Matricaria inodora,100%
same,herbicidal activity AMARE,Amaranthus retroflexus [7],90%
same,Herbicidal activity STEME,Stellaria media [8],100%
same,herbicidal activity ABUTH,Abutilon theophrasti [9],100%
same,herbicidal activity VIOTR,Viola tricolor [10],100%
same,Herbicidal activity STEME,Stellaria media [11],100%
same,herbicidal activity AVEFA,Avena fatua [12],100%
same,Herbicidal activity PHBPU,Pharbitis purpureum,100%
same,herbicidal activity AVEFA,Avena fatua [13],90%
same,herbicidal activity ALOMY,Alopecurus myosuroides [14],90%
Cn1nnnc1NC(=O)c1ccc(C(F)F)c([S+](C)[O-])c1C1CC1 (stereo not drawn) [Example 1-26],herbicidal activity ALOMY,Alopecurus myosuroides [1],100%
same,herbicidal activity ABUTH,Abutilon theophrasti [2],100%
same,herbicidal activity VIOTR,Viola tricolor [3],100%
same,herbicidal activity SETVI,Setaria viridis [4],100%
same,herbicidal activity AMARE,Amaranthus retroflexus [5],100%
same,Herbicidal activity ECHCG,ECHCG,100%
same,herbicidal activity SETVI,Setaria viridis [6],100%
same,herbicidal activity CYPES,Cyperus serotinus,100%
same,herbicidal activity MATIN,Matricaria inodora,100%
same,herbicidal activity AMARE,Amaranthus retroflexus [7],100%
same,Herbicidal activity STEME,Stellaria media [8],100%
same,herbicidal activity ABUTH,Abutilon theophrasti [9],100%
same,herbicidal activity VIOTR,Viola tricolor [10],100%
same,Herbicidal activity STEME,Stellaria media [11],100%
same,herbicidal activity AVEFA,Avena fatua [12],100%
same,Herbicidal activity PHBPU,Pharbitis purpureum,90%
same,herbicidal activity AVEFA,Avena fatua [13],100%
same,herbicidal activity ALOMY,Alopecurus myosuroides [14],90%
CC[S+]([O-])c1c(C(F)F)ccc(C(=O)Nc2nnnn2C)c1F (stereo not drawn) [Example 1-41],herbicidal activity ALOMY,Alopecurus myosuroides [1],100%
same,herbicidal activity ABUTH,Abutilon theophrasti [2],100%
same,herbicidal activity VIOTR,Viola tricolor [3],100%
same,herbicidal activity SETVI,Setaria viridis [4],90%
same,herbicidal activity AMARE,Amaranthus retroflexus [5],100%
same,Herbicidal activity ECHCG,ECHCG,90%
same,herbicidal activity SETVI,Setaria viridis [6],100%
same,herbicidal activity CYPES,Cyperus serotinus,100%
same,herbicidal activity MATIN,Matricaria inodora,100%
same,herbicidal activity AMARE,Amaranthus retroflexus [7],100%
same,Herbicidal activity STEME,Stellaria media [8],100%
same,herbicidal activity ABUTH,Abutilon theophrasti [9],100%
same,herbicidal activity VIOTR,Viola tricolor [10],100%
same,Herbicidal activity STEME,Stellaria media [11],100%
same,herbicidal activity AVEFA,Avena fatua [12],100%
same,Herbicidal activity PHBPU,Pharbitis purpureum,90%
same,herbicidal activity AVEFA,Avena fatua [13],100%
same,herbicidal activity ALOMY,Alopecurus myosuroides [14],90%
CCc1c(C(=O)Nc2nnc(C)o2)ccc(C(F)F)c1[S+]([O-])CC (stereo not drawn) [Example 7-15],herbicidal activity ALOMY,Alopecurus myosuroides [1],100%
same,herbicidal activity ABUTH,Abutilon theophrasti [2],100%
same,herbicidal activity VIOTR,Viola tricolor [3],100%
same,herbicidal activity SETVI,Setaria viridis [4],100%
same,herbicidal activity AMARE,Amaranthus retroflexus [5],100%
same,Herbicidal activity ECHCG,ECHCG,90%
same,herbicidal activity SETVI,Setaria viridis [6],100%
same,herbicidal activity CYPES,Cyperus serotinus,100%
same,herbicidal activity MATIN,Matricaria inodora,100%
same,herbicidal activity AMARE,Amaranthus retroflexus [7],100%
same,Herbicidal activity STEME,Stellaria media [8],100%
same,herbicidal activity ABUTH,Abutilon theophrasti [9],100%
same,herbicidal activity VIOTR,Viola tricolor [10],100%
same,Herbicidal activity STEME,Stellaria media [11],100%
same,herbicidal activity AVEFA,Avena fatua [12],100%
same,Herbicidal activity PHBPU,Pharbitis purpureum,90%
same,herbicidal activity AVEFA,Avena fatua [13],100%
same,herbicidal activity ALOMY,Alopecurus myosuroides [14],90%
Cn1nnnc1NC(=O)c1ccc(C(F)F)c(S(C)(=O)=O)c1F [Example 1-39],herbicidal activity ALOMY,Alopecurus myosuroides [1],90%
same,herbicidal activity ABUTH,Abutilon theophrasti [2],90%
same,herbicidal activity VIOTR,Viola tricolor [3],100%
same,herbicidal activity SETVI,Setaria viridis [4],100%
same,herbicidal activity AMARE,Amaranthus retroflexus [5],100%
same,Herbicidal activity ECHCG,ECHCG,90%
same,herbicidal activity SETVI,Setaria viridis [6],100%
same,herbicidal activity CYPES,Cyperus serotinus,90%
same,herbicidal activity MATIN,Matricaria inodora,100%
same,herbicidal activity AMARE,Amaranthus retroflexus [7],100%
same,Herbicidal activity STEME,Stellaria media [8],100%
same,herbicidal activity ABUTH,Abutilon theophrasti [9],100%
same,herbicidal activity VIOTR,Viola tricolor [10],100%
same,Herbicidal activity STEME,Stellaria media [11],100%
same,herbicidal activity AVEFA,Avena fatua [12],100%
same,Herbicidal activity PHBPU,Pharbitis purpureum,100%
same,herbicidal activity AVEFA,Avena fatua [13],80%
same,herbicidal activity ALOMY,Alopecurus myosuroides [14],90%
